The target of one data set is Bcl-xL1-212 (Homo sapiens, UniProt Q07817). Description: Competitive fluorescence polarization assay, selectivity. In kind it is binding. The note with it: competitive FP. The source says: Because BH3-binding pocket of MCL-1 is similar to BH3-binding pocket of Bcl-2 family proteins such as Bcl-xL, the present inventors tested the selectivity of PPT-31.
(In general: Polarisation of emitted light reports the rotation of a fluorescent probe.)

The target in a further data set is Mcl-1172-320 (Homo sapiens, UniProt Q07820). Briefly: Competitive fluorescence polarization assay with labeled Bak-BH3 peptide.
Chain of Mcl-1172-320 (Q07820 172-320): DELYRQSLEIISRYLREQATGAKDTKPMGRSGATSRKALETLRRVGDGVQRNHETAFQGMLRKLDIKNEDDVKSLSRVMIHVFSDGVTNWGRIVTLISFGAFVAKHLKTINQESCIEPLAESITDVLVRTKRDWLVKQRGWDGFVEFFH
Data set [1] in a line: Water solubility in phosphate buffered saline. Type of data set: physicochemical. To be noted: aqueous buffer; phosphate buffered saline at pH 7.4. The text has this:
As a result of analyzing the three peptoids, the selected compounds had the following structures of 9a (Chemical formula 4), 9b (Chemical formula 5) and 9c (Chemical formula 6), respectively.

Data set [2] concerns the target T1, interaction between MCL-1 and BH3 (Homo sapiens, UniProt Q07820).
T1 construct: GST (cleaved yes); made in house; host or cells: E. coli BL21(DE3)
Description: Competitive fluorescence polarization assay with FITC-MCL-1-BH3 peptide. In kind it is binding. To be noted: for activity in competitive fluorescence polarization assay (MCL-1/BH3): result in words; for Ki: competitive fluorescence polarization, FITC-MCL-1-BH3 50 nM, 0.8 μM MCL-1ΔNΔC, read-out: Ki, dissociation of the interaction between MCL-1 and BH-3. On the procedure: MCL-1 protein was incubated with sulfo-NHS-Biotin (Thermo Scientific) in 0.1 M NaHCO3 buffer (pH 8.3) for 45 minutes at room temperature to biotinylate the MCL-1 protein (because MCL-1ΔNΔC protein used in the test have several Lysine residues being exposed in a surface and being apart from the active site of BH3 binding, the protein is biotinylated with modification). The reaction was quenched with addition of 1.5 M hydroxylamine. The labeled protein was separated with the dialysis with 1×PBS buffer containing 0.05% Tween20 (pH 7.4). The degree of labeling was determined according to the manufacturer's instructions (degree of biotinylation: 1.05 biotin per protein).
Fluorescence polarization values were measured with a SpectraMax M5 Multi-Mode Microplate Reader (Molecular Devices). […] KD was calculated with GraphPad Prism 4 software. […] N-terminal labeled FITC-MCL-1-BH3 peptide (FITC-Abu-[…]-NH2) was synthesized and purified with HPLC. The compounds was incubated at various concentrations with FITC-MCL-1-BH3 (50 nM) and 0.8 μM MCL-1ΔNΔC in binding buffer for 30 minutes and then was added by FITC-MCL-1-BH3 (50 nM). After incubated with addition of various concentrations of compounds, the fluorescence polarization was measured. Ki was calculated by using the conventional method (Nikolovska-Coleska, Z. et al, Anal. Biochem. 2004, 332, 261).

Data set [3] has as its target α-synuclein disease-associated mutant A53T (Homo sapiens, UniProt P37840, A53T). Briefly: Thioflavin-T aggregation assay. To be noted: 30 hours, 37° C. Type of data set: biochemical.
For data set [4], the target named is T2, MCL-1/BAK interaction in Jurkat T cells (Homo sapiens, UniProt Q07820).
T2 construct: endogenous in cells; host or cells: Jurkat T cells
T2 sequence (Q07820 whole entry): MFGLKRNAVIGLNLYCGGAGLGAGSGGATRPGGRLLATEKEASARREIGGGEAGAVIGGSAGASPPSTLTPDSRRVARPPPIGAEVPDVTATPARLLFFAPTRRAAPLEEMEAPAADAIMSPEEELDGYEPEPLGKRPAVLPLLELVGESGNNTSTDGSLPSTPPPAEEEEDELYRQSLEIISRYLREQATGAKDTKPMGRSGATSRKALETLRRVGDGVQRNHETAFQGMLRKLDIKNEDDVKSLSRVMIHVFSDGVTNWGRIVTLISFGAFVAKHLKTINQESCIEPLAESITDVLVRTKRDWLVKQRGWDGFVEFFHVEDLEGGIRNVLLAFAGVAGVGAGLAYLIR
Briefly: Co-immunoprecipitation and Western blotting. Type of data set: cell-based. The note with it: 2.5 hours, MCL-1 immunoprecipitation, Western blot. On the procedure: In Opti-MEM medium, Jurkat T cells (1×10^7 cells) were treated with DMSO or compound. Cells were harvested after culturing for 2.5 hours, washed once with PBS, and lysed on ice using lysis buffer (50 mM Tris-HCl, pH 7.4, 150 mM NaCl, 1 mM EDTA, 1 mM DTT, 0.5% NP-40 and complete protease inhibitor tablet). Cell lysates were incubated with anti-MCL-1 antibody (S-19, Santa Cruz) overnight at 4° C. and incubated with protein A/G agarose for 1 hour. The beads were precipitated, washed at three times with lysis buffer, and the denatured protein was subjected to western blotting using anti-BAK (Cell Signaling) and anti-MCL-1 antibody. Western blot analysis was performed on an Immobilon-FL (Millipore) PVDF membrane. Goat anti-Rabbit IRDye 680 antibody (Licor) was used as a secondary antibody and the signal was analyzed with Odyssey 3.0 software.
In general terms: A western blot detects proteins with antibodies after separation by electrophoresis.

The subject of the next data set is A549 cells. Briefly: Confocal microscopy, cell permeation. In kind it is cell-based. To be noted: fluorescence-labeled compound. On the procedure: A549 cells (5×10^3 cells) were plated MEM medium containing 10% FBS of 96-well plates. Cells were maintained for 24 hours, washed with PBS, and then […] of fluorescence-labeled compound or 5 (6)-carboxyfluorescein was treated in Opti-MEM medium and incubated for 2.5 hours. The cells were washed with 1×PBS (2 times) and fluorescence images were analyzed.

A further data set relates to Jurkat leukemia T cells. Description: Cell viability assay. In kind it is cell-based. To be noted: 24 hours. On the procedure:
(§1) Jurkat T cells were cultured in RPMI 1640 medium containing 10% FBS, and 4×10^4 Jurkat T cells were seeded in 100 μL Opti-MEM medium (Invitrogen) of 96-well plate. WS-1 cells were cultured in MEM medium containing 10% FBS and 2×10^4 WS-1 cells were seeded in 100 μL MEM medium containing 10% FBS of 96-well plate for 24 hours, washed with PBS, and cultured in 100 μL Opti-MEM. The cells were maintained at serum-starved state for 6 hours and treated with the compound. After culturing for 24 hours, the cell viability was assayed using the CellTiter 96 AQueous Non-Radioactive Cell Proliferation Assay kit (Promega) according to the manufacturer's instructions.

Data set [5] relates to WS-1 human fibroblast cells. Briefly: Cell viability assay. The note with it: 24 hours. Type of data set: cell-based. On the procedure:
as §1

For data set [6], the system named is U266 cells (multiple myeloma). Briefly: Cell viability assay. In kind it is cell-based. To be noted: 24 hours.
Data set [7] has as its system HEK293 embryonic kidney cells. Description: Cell viability assay. The note with it: 24 hours. Type of data set: cell-based.
The test system of another data set is U266 cells. Briefly: Caspase 3/7 assay. In kind it is cell-based. The note with it: 16 hours.
The target of the next data set is T3, α-synuclein (Homo sapiens, UniProt P37840).
T3 construct: GST (cleaved yes); made in house; host or cells: E. coli Rosetta 2 (DE3)
Description: Fluorescence polarization assay, binding to wild type α-synuclein. The note with it: result in words.

T1 sequence (Q07820 172-320): as the sequence (Q07820 172-320) above
Chain of Bcl-xL1-212 (Q07817 1-212): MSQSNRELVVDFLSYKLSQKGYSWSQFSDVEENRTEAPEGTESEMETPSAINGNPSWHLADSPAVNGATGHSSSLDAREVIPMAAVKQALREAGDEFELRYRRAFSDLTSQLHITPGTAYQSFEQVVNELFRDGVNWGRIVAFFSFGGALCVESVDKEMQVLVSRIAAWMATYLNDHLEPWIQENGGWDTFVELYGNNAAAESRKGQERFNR
Description for Mcl-1172-320: The cell was treated with 1 mM IPTG (isopropyl β-D-1-thiogalactopyranoside) to induce the protein expression. The cell pellet was resuspended with lysis buffer (20 mM Tris, pH 7.2, 250 mM NaCl, complete protease tablet (Roche)) and sonicated to be lysis. After centrifuging, the cell lysate was applied to a 5-mL GSTrap HP column (GE Life Sciences) and performed according to the manufacturer's instructions.
Various concentrations of phenyl-piperazine-triazine in 40 μL of buffer were added to the mixture. After incubating for 15 minutes, the Fluorescence polarization (mP units) was measured with Infinite®200 PRO Microplate Reader (Tecan).

As to `CCNc1nc(NCc2ccccc2)nc(N2CCN(c3ccc(C(N)=O)cc3NCc3ccccc3)CC2Cc2ccccc2)n1` (stereo not drawn) [PPT-31, 2-{4-(2-aminobenzyl-4-carbamoylphenyl)-2-benzyl-piperazine}-4-aminoethyl-6-aminobenzyl-[1,3,5]triazine], on Bcl-xL1-212, the “inhibition of the interaction between Bcl-xL1-212 and BH3” value is “did not inhibit”. At Mcl-1172-320, the inhibitory constant (Ki) stood at 7.3 µM. On Mcl-1172-320 (at 10 μM and 50 μM, among 36 library compounds), the “inhibitory effect on the Mcl-1/BH3 interaction” value is on record as “highest inhibitory effect”.
`CCNc1nc(NCc2ccccc2)nc(N2CCN(c3nc(N)nc(NCc4ccc5c(c4)OCO5)n3)CC2Cc2ccccc2)n1` (stereo not drawn) [Chemical formula 4, 6-(4-(4-amino-6-((benzo[d][1,3]dioxol-5-ylmethyl)amino)-1,3,5-triazin-2-yl)-2-benzylpiperazin-1-yl)-N^2-benzyl-N^4-ethyl-1,3,5-triazine-2,4-diamine] yielded a solubility in data set [1] of approximately 100 µg/mL. The “activity in competitive fluorescence polarization assay (MCL-1/BH3)” value in data set [2] was “weak activity”. The “aggregation of α-synuclein (onset / inhibition)” value in data set [3] is given as “had not inhibition of aggregation”.
In data set [1], `CCCN(CC1CC1)c1nc(N)nc(N2CCN(c3nc(NCC)nc(NCc4ccc5c(c4)OCO5)n3)C(Cc3ccccc3)C2)n1` (stereo not drawn) [Chemical formula 5, 6-(4-(4-amino-6-((cyclopropylmethyl)(propyl)amino)-1,3,5-triazin-2-yl)-2-benzylpiperazin-1-yl)-N^2-(benzo[d][1,3]dioxol-5-ylmethyl)-N^4-ethyl-1,3,5-triazine-2,4-diamine] gave a solubility of approximately 100 µg/mL. Further, in data set [2], the Ki came to 17.2 µM. Also, the “inhibition of MCL-1/BAK protein interaction in cells” value (shortened to “inhibition … in cells”) in data set [4] is on record as “effectively inhibit”.
Regarding `CCNc1nc(NCCc2ccc(O)cc2)nc(N2CCN(c3nc(N)nc(Nc4ccc(Oc5ccccc5)cc4)n3)CC2Cc2ccccc2)n1` (stereo not drawn) [Chemical formula 6, 4-(2-((4-(4-(4-amino-6-((4-phenoxyphenyl)amino)-1,3,5-triazin-2-yl)-2-benzylpiperazin-1-yl)-6-(ethylamino)-1,3,5-triazin-2-yl)amino)ethyl)phenol], in [1], the solubility was approximately 100 µg/mL. For the same compound, in data set [2], the Ki stood at 9.3 µM. The “inhibition … in cells” value in data set [4] is “inhibited”. For the same compound, the cell permeability result in the data set on A549 cells is “permeable to cells”. The “survival of cancer cells” value (in the data set on Jurkat leukemia T cells; in data set [6]) was “effectively inhibited the survival” throughout. The “survival of normal cells” value in [5] and in data set [7] was “did not affect survival” throughout. Besides, the “caspase 3/7 activity” value with U266 cells was “increased the caspase activity in a concentration-dependent manner”. Also, the “binding to α-synuclein” value on α-synuclein is “showed affinity”.
On to `CCNc1nc(N)nc(N2CCN(c3nc(NCC)nc(NCC)n3)CC2)n1` [9-nc, 6-(4-(4-amino-6-(ethylamino)-1,3,5-triazin-2-yl)piperazin-1-yl)-N^2,N^4-diethyl-1,3,5-triazine-2,4-diamine, reference compound], for which the “activity in competitive fluorescence polarization assay (MCL-1/BH3)” value in [2] is given as “did not bind”. Further, the “inhibition … in cells” value in [4] is on record as “did not inhibit”.

The Ki is a measure of affinity in units of concentration, obtained from inhibition or displacement. Usually solubility stands for how much of the substance goes into solution per volume. A higher solubility goes with much dissolved substance.

For the origin of these results see US10131650B2, “Alpha-helix analog having triazine-piperazine backbone and method for preparing same” (POSCO, priority 2014, dated 2018).
